The subject of series [1] is colon cancer CT26. The series is described as follows: In vivo pharmacodynamics, anti-colon cancer CT26 activity (intraperitoneal injection, once daily). The following applies: CT26 in BALB/c mice; for activity at the end of the experiment compared with other groups: once daily dosing; for Inhibition rate (%) of tumor weight / Tumor weight: 50 mg/kg daily intraperitoneal injection, two weeks. Here is the method:
Pharmacodynamics of Some Compounds In Vivo (Intraperitoneal Injection):
(§1) The anti-colon cancer CT26 activity of these compounds was tested in vivo. 1×10^6 CT26 cells were inoculated subcutaneously in the right axillary of BALB/c mice by cell suspension inoculation. When the growth of tumors were clearly observed, 42 moderately tumor size animals were selected and randomly divided into test group, solvent control group and positive drug group, with 6 animals in each group. […] The compound groups were intraperitoneally injected with 50 mg/kg of the compound every day, while the solvent control group was given the same dosage with the same volume of mixed solvent. The weight of the mice and the length and short diameter of the transplanted tumors were measured three times a week during the administration. The tumor volume (VT), relative volume (RVT) and tumor proliferation rate (T/C %) were calculated. After two weeks of administration, nude mice bearing tumors in each experimental group were executed by neck-lifting method. Solid tumour tissues were completely dissected. The weight of tumors in each experimental group was measured and the growth inhibition rate (%) was calculated.

Series [2] has as its system colon cancer CT26. Described as above. The following applies: 300 mg/kg daily by oral, two weeks, CT26 in BALB/c mice.
The target in series [3] is T1, IDO1 enzyme in Hela cells (Homo sapiens, UniProt P14902).
T1 construct: endogenous in cells; host or cells: HeLa cells stimulated with human recombinant IFN-γ
The series is described as follows: Inhibition of IDO1 enzyme in IFN-γ stimulated Hela cells (kynurenine read at 480 nm). The note with it: for inhibition at 0.1 µM: read-out: Inhibition rate (%) 100 nmol; for inhibition at 10 µM: read-out: Inhibition rate (%) 10 μmol; for activity compared with positive control drugs INCB024360 and IN-4 / IC50: Hela cells; for activity compared with positive control drugs INCB024360 and IN-4: IC50 comparison; for IC50: read-out: Inhibition rate IC50 (nmol/L) on IDO1 enzyme activity in Hela cells. It counts as cell-based.

The test system of series [4] is colon cancer CT26. The series is described as follows: In vivo pharmacodynamics, anti-colon cancer CT26 activity (oral administration, twice a day). On the set-up: species or system BALB/c mice. The note with it: two weeks. Here is the method:
Pharmacodynamic of Some Compounds In Vivo (Oral Administration):
as §1, with “observed, 56” for “observed, 42”, “with 8” for “with 6”, “The” for “The compound groups were intraperitoneally injected with 50 mg/kg of the compound every day, while the”, “same” for “same dosage with the same”, “mixed solvents by oral. The above groups were administered twice a day.” for “mixed solvent.”

Series [5] in a line: Oral pharmacokinetic test of compound 55 in rats. Type of series: in vivo. The note with it: male, Sprague-Dawley, plasma, rat, 30 mg/kg. How it is done: Pharmacokinetic Test and Results of Compound 55:
12 Male Sprague-Dawley rats were grouped random. The final concentration of compound 55 was 1.5 mg/ml. The drug was dissolved in a solvent system of 10% DMSO, 10% hydrogenated castor oil and […] (compounds were dissolved by DMSO, hydrogenated castor oil and saline in turn by vortex or ultrasound), and the drug solution was given orally (30 mg/kg). The rats were fasted overnight but had free access to water, feeding resumed 4 hours after administration. Blood samples (0.3-0.4 mL) were collected into heparinized tubes by Retinal vein plexus at 0, 0.17, 0.33, 0.67, 1, 2, 4, 7, 10 and 24 hours after administration orally. Tubes were anticoagulated with heparin sodium (5% heparin sodium solution filled EP tube, poured out, dried). 100 uL plasma was obtained by centrifugation (10000 rpm, 3 min) and stored at −20° C. before analysis.

Series [6] relates to colon cancer CT26. The series can be described thus: In vivo pharmacodynamics, anti-colon cancer CT26 activity (oral administration, twice a day). On the set-up: species or system BALB/c mice. The following applies: 50 mg/kg intraperitoneal injection (IP), two weeks.
The conditions of series [7]: literature value, species not stated; cited from earlier work.
Setting [8] is: 100 nmol compound, IFN-γ stimulated Hela cells, 48 hours.
Setting [9] is: 10 μmol compound, IFN-γ stimulated Hela cells, 48 hours.

Where two headings read alike, the source gives them in different places.

The values that follow come from patent US11370762B2, “Vinylarene derivative and application” (SHENYANG RESEARCH INSTITUTE OF CHEMICAL INDUSTRY CO., LTD., priority 2017, dated 2022).

T1 sequence (P14902 whole entry): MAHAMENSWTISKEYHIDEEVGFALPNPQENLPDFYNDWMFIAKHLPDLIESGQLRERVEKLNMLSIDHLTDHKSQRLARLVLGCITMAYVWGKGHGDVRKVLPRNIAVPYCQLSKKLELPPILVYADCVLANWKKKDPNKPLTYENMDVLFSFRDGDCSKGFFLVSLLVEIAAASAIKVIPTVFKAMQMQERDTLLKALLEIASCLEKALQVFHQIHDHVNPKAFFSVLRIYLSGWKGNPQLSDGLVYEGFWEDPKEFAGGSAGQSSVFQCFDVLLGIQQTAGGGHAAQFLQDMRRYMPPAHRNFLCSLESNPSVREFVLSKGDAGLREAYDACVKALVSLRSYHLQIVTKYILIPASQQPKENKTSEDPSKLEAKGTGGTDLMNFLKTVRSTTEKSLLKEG

With `Cn1cc(C[C@@H](N)C(=O)O)c2ccccc21` [Compound 1-MT, 1-methyl-D-tryptophan], the “activity at the end of the experiment compared with other groups” value in the series on colon cancer CT26 [1] is given as “better than that of INCB024360”. Also, in the series on colon cancer CT26 [2], the “Inhibition rate (%) of tumor weight” value was determined as 25.5% and the “Tumor weight” value was 2509.17 ± 352.16 mg.
By inhibition is commonly meant the change of the read-out against control, counted positive when it falls. With `CCCCN(CCCC)c1ccc(/C(C)=C\C(=O)O)cc1NC(=O)Nc1ccc(F)cc1F` [Compound 13], the inhibition at 0.1 µM in series [3] (setting [8]) worked out at 100%. Also, the inhibition at 10 µM in series [3] (setting [9]) was determined as 100%. In series [3], the “activity compared with positive control drugs INCB024360 and IN-4” value is “can reach or exceed those of the positive control drugs INCB024360 and IN-4”; the IC50 worked out at 3.69 nmol/L.
With `CCCCN(CCCC)c1ccc(/C(C)=C\C(=O)O)cc1NC(=O)Nc1ccc(C)cc1F` [Compound 14], in the series with colon cancer CT26 [4] (50 mg/kg oral), the “Inhibition rate (%) of tumor weight” value is 37.39% and the “Tumor weight” value turned out to be 793.38 ± 246.34 mg. Besides, in series [3] (setting [8]), the inhibition at 0.1 µM was 100%. In addition, the inhibition at 10 µM in series [3] (setting [9]) is 100%. Besides, in series [3], the “activity compared with positive control drugs INCB024360 and IN-4” value is “can reach or exceed those of the positive control drugs INCB024360 and IN-4”; the IC50 worked out at 0.18 nmol/L. Further, in the series on colon cancer CT26 [1], the “Inhibition rate (%) of tumor weight” value turned out to be 19.02% and the “Tumor weight” value came to 2727.33 ± 404.42 mg.
With `C/C(=C/C(=O)O)c1ccc(N(CC(C)C)CC(C)C)c(NC(=O)Nc2ccc(C)cc2)c1` [Compound 51], in series [3], the “activity compared with positive control drugs INCB024360 and IN-4” value was “can reach or exceed those of the positive control drugs INCB024360 and IN-4”; the IC50 was found to be 3.69 nmol/L.
The term AUC denotes concentration integrated over time. Higher therefore signals more exposure. Broadly, the Cmax is the maximum level reached in the sampled fluid or tissue. The half-life is the time in which the quantity being followed falls by half. In series [5], `C/C(=C/C(=O)O)c1ccc(N(CC(C)C)CC(C)C)c(NC(=O)Nc2ccc(F)cc2F)c1` [Compound 55, (Z)-3-(3-(3-(2,4-difluorophenyl)ureido)-4-(diisobutylamino)phenyl)but-2-enoic acid] showed an AUC of 43700 ng·h/mL, a Cmax of 16800 ng/mL and a half-life of 5 h. Further, in the series with colon cancer CT26 [4] (20 mg/kg oral (low dose)), the “Inhibition rate (%) of tumor weight” value was determined as 12.42% and the “Tumor weight” value worked out at 1109.75 ± 191.47 mg. Also, in the series on colon cancer CT26 [4] (50 mg/kg oral), the “Inhibition rate (%) of tumor weight” value stood at 27.06% and the “Tumor weight” value stood at 924.25 ± 150.35 mg. Moreover, in the series with colon cancer CT26 [4] (100 mg/kg oral (high dose)), the “Inhibition rate (%) of tumor weight” value worked out at 33.16% and the “Tumor weight” value was 847.00 ± 305.01 mg. Moreover, in series [3], the “activity compared with positive control drugs INCB024360 and IN-4” value was “can reach or exceed those of the positive control drugs INCB024360 and IN-4”; the IC50 amounted to 0.09 nmol/L. Further, in the series with colon cancer CT26 [6], the “Inhibition rate (%) of tumor weight” value was determined as 34.97% and the “Tumor weight” value was 824.00 ± 161.64 mg. In the series with colon cancer CT26 [1], the “Inhibition rate (%) of tumor weight” value is given as 37.02%, the “Tumor weight” value worked out at 2121.17 ± 343.15 mg and the “activity at the end of the experiment compared with other groups” value is listed as “equivalent to that of 1-MT”.
As to `C/C(=C/C(=O)O)c1ccc(N(CC(C)C)CC(C)C)c(NC(=O)Nc2ccc(C)cc2F)c1` [Compound 56], in series [3], the “activity compared with positive control drugs INCB024360 and IN-4” value is “can reach or exceed those of the positive control drugs INCB024360 and IN-4”; the IC50 stood at 0.13 nmol/L.
On to `CCCCN(CCCC)c1ccc(/C(C)=C/C(=O)OCC)cc1NC(=O)Nc1ccc(C)cc1` [Compound 518, ethyl (E)-3-(4-(dibutylamino)-3-(3-(p-tolyl)ureido)phenyl)but-2-enoate], for which, in series [3] (HeLa, 48 h), the inhibition at 0.1 µM is 76.8% and the inhibition at 10 µM is 100%.
In the case of `CCCCN(CCCC)c1ccc(/C(C)=C/C(=O)O)cc1NC(=O)Nc1ccc(C)cc1F` [Compound 530], in series [3], the IC50 was 8.26 nmol/L.
As for `CCOC(=O)/C=C(\C)c1ccc(N(CC(C)C)CC(C)C)c(NC(=O)Nc2ccc(F)cc2F)c1` [Compound 564, ethyl (E)-3-(3-(3-(2,4-difluorophenyl)ureido)-4-(diisobutylamino)phenyl) but-2-enoate], in series [3] (setting [8]), the inhibition at 0.1 µM amounted to 72.2%. Also, the inhibition at 10 µM in series [3] (setting [9]) was 100%.
As to `CCCCN(CCCC)c1ccc(/C(C)=C/C(=O)OCC)cc1NC(=O)Cc1ccccc1F` [Compound 772], the inhibition at 0.1 µM in series [3] (setting [8]) worked out at 74.2%. The inhibition at 10 µM in series [3] (setting [9]) turned out to be 100%.
`CCCCN(CCCC)c1ccc(/C(C)=C/C(=O)O)cc1NC(=O)Cc1ccccc1F` [Compound 779]: the inhibition at 0.1 µM in series [3] (setting [8]) amounted to 77.1%. Further, the inhibition at 10 µM in series [3] (setting [9]) stood at 100%.
The corresponding values for `CCCCN(CCCC)c1ccc(/C(C)=C/C(=O)OCC)cc1NC(=O)Nc1ccccc1Cl` [Compound 1021] are 42.1% and 100%.
Regarding `CCCCN(CCCC)c1ccc(/C(C)=C/C(=O)OCC)cc1NC(=O)Nc1cccc(Cl)c1` [Compound 1022], the inhibition at 0.1 µM in series [3] (setting [8]) came to 21.2%. Besides, in series [3] (setting [9]), the inhibition at 10 µM came out at 53.7%.
With `CCCCN(CCCC)c1ccc(/C(C)=C/C(=O)OCC)cc1NC(=O)Nc1ccc(Cl)cc1` [Compound 1023], the inhibition at 0.1 µM in series [3] (setting [8]) was found to be 35.1%. For the same compound, the inhibition at 10 µM in series [3] (setting [9]) is 100%.
The corresponding values for `CCCCN(CCCC)c1ccc(/C(C)=C/C(=O)OCC)cc1NC(=O)Nc1ccc(Cl)c(C(F)(F)F)c1` [Compound 1024] are 29.5% and 58.2%.
For the compound `CCCCN(CCCC)c1ccc(/C(C)=C/C(=O)OCC)cc1NC(=S)Nc1ccccc1` [Compound 1025], the inhibition at 0.1 µM in series [3] (setting [8]) is 24.6%. Further, the inhibition at 10 µM in series [3] (setting [9]) is 68.8%.
Take `CCCCN(CCCC)c1ccc(/C(C)=C/C(=O)OCC)cc1NC(=O)Nc1cccc(C)c1` [Compound 1026]: the inhibition at 0.1 µM in series [3] (setting [8]) amounted to 21%. In addition, the inhibition at 10 µM in series [3] (setting [9]) is 54.3%.
The corresponding values for `CCCCN(CCCC)c1ccc(/C(C)=C/C(=O)O)cc1NC(=O)Nc1ccccc1Cl` [Compound 1027] are 71.1% and 100%.
Consider `CCCCN(CCCC)c1ccc(/C(C)=C/C(=O)O)cc1NC(=O)Nc1cccc(Cl)c1` [Compound 1028], for which the inhibition at 0.1 µM in series [3] (setting [8]) worked out at 41.5%. Moreover, the inhibition at 10 µM in series [3] (setting [9]) was determined as 100%.
In the same order, the values of `CCCCN(CCCC)c1ccc(/C(C)=C/C(=O)O)cc1NC(=O)Nc1ccc(Cl)c(C(F)(F)F)c1` [Compound 1030] are 23.8% and 100%.
In the same order, the values of `CCCCN(CCCC)c1ccc(/C(C)=C/C(=O)O)cc1NC(=S)Nc1ccccc1` [Compound 1031] are 29.6% and 72.7%.
In the case of `NS(=O)(=O)NCCNc1nonc1C(=NO)Nc1ccc(F)c(Br)c1` [INCB024360, reference compound], in the series with colon cancer CT26 [4] (50 mg/kg oral), the “Inhibition rate (%) of tumor weight” value turned out to be 33.66% and the “Tumor weight” value is on record as 840.63 ± 144.34 mg. The “T1/2 reported in the literature” value in series [7] is 2.3 h. For the same compound, in the series on colon cancer CT26 [1], the “Inhibition rate (%) of tumor weight” value worked out at 10.23% and the “Tumor weight” value worked out at 3026.17 ± 409.75 mg.
